Measurements reported in patent EP3650451A1, “COMPOUNDS AND THEIR USES AS FLUORESCENT PROBES” (Consejo Superior de Investigaciones Cientificas, priority 2017, dated 2019).

Key:
[1] = Stability in water: time evolution in D2O followed by 1H NMR (hydrolysis); type: physicochemical; conditions: 15 mM solution in D2O at 25 °C, read-out: t1/2 (hydrolysis) (converted)
Procedure: One of the critical factors that conditions the viability and applicability of functional dyes 3 and 4 as fluorescent mitochondrial probes is their stability in water, since these compounds contain two potentially labile B-O bonds linking the fluorophore with the carnitine substituent. This stability was determined analyzing the time evolution of 3 and 4 in a 15 mM solution in D2O at 25 °C using ^1H NMR. This technique makes it possible not only to define their stability, but also to identify the possible degradation products (Diagram 2). Both probes are hydrolyzed, generating free carnitine and the corresponding 4,4-dihydroxy-BODIPY derivatives 5 and 6. [drawing 8]
Compound 3 is quickly hydrolyzed (t1/2 = 10 min); however, the greater substitution of the tetramethylated derivative in 4 gives it greater stability (t1/2 = 6 h), which promotes its use as a fluorescent marker in live cells. Contrary to what might be believed, the generation of free carnitine and of the corresponding BODIPY derivatives 5 and 6 at physiological pH is, indeed, an advantage for its application in cell labels. Thus, (R)-carnitine is incorporated into the mitochondrial metabolism, while the boron of the hydrolyzed BODIPY can covalently bond to poly-hydroxilated molecules (for example, saccharides and glycoproteins), generating cyclic boronic esters. […]

[2] = Photophysical characterization: absorption and fluorescence spectra; type: physicochemical; conditions: for λfl: Fluorescence peak wavelength: excitation at 490 nm; for φf: Quantum yield: reference PM567 in ethanol
Procedure: The photophysical characterization of probes 3 and 4 was carried out analyzing the corresponding absorption and fluorescence spectra in the UV-visible region of the spectrum.
Its photophysical behavior is dependent on the degree of substitution of the BODIPY, since the alkylation of the chromatophore induces sufficient steric hindrance to reduce the free rotation of the 8-mesityl group, a process that entails a significant reduction in fluorescence efficiency. Thus, probe 4 in water stands out for having a high molar absorption coefficient (3.8 × 10^4 M^-1 cm^-1 at 499 nm) and a very efficient fluorescence emission at 511 nm, with a quantum yield of up to 80%.

CC1=CC(C)=[N+]2C1=C(c1c(C)cc(C)cc1C)c1c(C)cc(C)n1[B-]21OC(=O)C[C@H](C[N+](C)(C)C)O1 (stereo partly shown) [Compound 4]
half-life at 15000 µM [1]: 6 h | photostability [2]: high photostability | kfl: Radiative decay constant ([2]; Acetone): 1.27 10^8s^- 1 | knr: Non-Radiative decay constant ([2]; Acetone): 0.16 10^8s^- 1 | Δv: Stokes shift ([2]; Acetone): 504 cm⁻¹ | εmax: Molar extinction coefficient at the absorption peak ([2]; Acetone): 5.1 × 10^4 (M^-1 cm^- 1) | λab: Absorption peak wavelength ([2]; Acetone): 501 nm | τ: Fluorescence lifetime ([2]; Acetone): 7.00 ns | λfl: Fluorescence peak wavelength ([2]; Acetone): 514 nm | φf: Quantum yield ([2]; Acetone): 0.89 | kfl: Radiative decay constant ([2]; Acetonitrile): 1.21 10^8s^- 1 | knr: Non-Radiative decay constant ([2]; Acetonitrile): 0.20 10^8s^- 1 | Δv: Stokes shift ([2]; Acetonitrile): 469 cm⁻¹ | εmax: Molar extinction coefficient at the absorption peak ([2]; Acetonitrile): 4.9 × 10^4 (M^-1 cm^- 1) | λab: Absorption peak wavelength ([2]; Acetonitrile): 500 nm | τ: Fluorescence lifetime ([2]; Acetonitrile): 7.12 ns | λfl: Fluorescence peak wavelength ([2]; Acetonitrile): 512 nm | φf: Quantum yield ([2]; Acetonitrile): 0.86 | kfl: Radiative decay constant ([2]; Chloroform): 1.36 10^8s^- 1 | knr: Non-Radiative decay constant ([2]; Chloroform): 0.22 10^8s^- 1 | Δv: Stokes shift ([2]; Chloroform): 424 cm⁻¹ | εmax: Molar extinction coefficient at the absorption peak ([2]; Chloroform): 4.8 × 10^4 (M^-1 cm^- 1) | λab: Absorption peak wavelength ([2]; Chloroform): 504 nm | τ: Fluorescence lifetime ([2]; Chloroform): 6.32 ns | λfl: Fluorescence peak wavelength ([2]; Chloroform): 514 nm | φf: Quantum yield ([2]; Chloroform): 0.86 | kfl: Radiative decay constant ([2]; Ethanol): 1.22 10^8s^- 1 | knr: Non-Radiative decay constant ([2]; Ethanol): 0.18 10^8s^- 1 | Δv: Stokes shift ([2]; Ethanol): 427 cm⁻¹ | εmax: Molar extinction coefficient at the absorption peak ([2]; Ethanol): 5.1 × 10^4 (M^-1 cm^- 1) | λab: Absorption peak wavelength ([2]; Ethanol): 502 nm | τ: Fluorescence lifetime ([2]; Ethanol): 7.10 ns | λfl: Fluorescence peak wavelength ([2]; Ethanol): 513 nm | φf: Quantum yield ([2]; Ethanol): 0.87 | kfl: Radiative decay constant ([2]; Water): 1.14 10^8s^- 1 | knr: Non-Radiative decay constant ([2]; Water): 0.23 10^8s^- 1 | Δv: Stokes shift ([2]; Water): 470 cm⁻¹ | εmax: Molar extinction coefficient at the absorption peak ([2]; Water): 3.8 × 10^4 (M^-1 cm^- 1) | λab: Absorption peak wavelength ([2]; Water): 499 nm | τ: Fluorescence lifetime ([2]; Water): 7.30 ns | λfl: Fluorescence peak wavelength ([2]; Water): 511 nm | φf: Quantum yield ([2]; Water): 0.83 | tendency towards H- or J- type aggregation ([2]; concentrations as high as 10^-4 M): not exhibit any tendency towards H- or J- type aggregation | fluorescence emission (wavelength) ([2]; in water): 511 nm | quantum yield ([2]; in water): up to 80% | molar absorption coefficient ([2]; in water, at 499 nm): 38000 M⁻¹ cm⁻¹
